Experimental data published in patent US7414061B2, “Aryl-isoxazol-4-yl-imidazole derivatives” (Hoffmann-La Roche Inc., priority 2005, dated 2008).

Molecular target: T1, GABA A receptor α5β3γ2 (hα5) (Homo sapiens, UniProt P18507+P31644)
T1 construct: expressed in transfected cells; host or cells: HEK293 (transiently transfected), membrane preparation
Test: [3H]flumazenil competition binding assay, human GABA A α5β3γ2
Conditions: displacement of [3H]flumazenil (0.5 nM) from HEK293 cell membranes expressing α5β3γ2; means of two determinations; read-out: Ki[nM] hα5
Experimental: The affinity of compounds at GABA A receptor subtypes was measured by competition for [3H]flumazenil (85 Ci/mmol; Roche) binding to HEK293 cells expressing rat (stably transfected) or human (transiently transfected) receptors of composition α1β3γ2, α2β3γ2, α3β3γ2 and α5β3γ2.
Cell pellets were suspended in Krebs-tris buffer (4.8 mM KCl, 1.2 mM CaCl2, 1.2 mM MgCl2, 120 mM NaCl, 15 mM Tris; pH 7.5; binding assay buffer), homogenized by polytron for ca. 20 sec on ice and centrifuged for 60 min at 4° C. (50000 g; Sorvall, rotor: SM24=20000 rpm). The cell pellets were resuspended in Krebs-tris buffer and homogenized by polytron for ca. 15 sec on ice. Protein was measured (Bradford method, Bio-Rad) and aliquots of 1 mL were prepared and stored at −80° C.
Radioligand binding assays were carried out in a volume of […] (96-well plates) which contained […] of cell membranes, [3H]flumazenil at a concentration of 1 nM for α1, α2, α3 subunits and 0.5 nM for α5 subunits and the test compound in the range of […]. Nonspecific binding was defined by 10^−5 M diazepam and typically represented less than 5% of the total binding. Assays were incubated to equilibrium for 1 hour at 4° C. and harvested onto GF/C uni-filters (Packard) by filtration using a Packard harvester and washing with ice-cold wash buffer (50 mM Tris; pH 7.5). After drying, filter-retained radioactivity was detected by liquid scintillation counting. Ki values were calculated using Excel-Fit (Microsoft) and are the means of two determinations.

| SMILES | Ki |
| --- | --- |
| Cc1onc(-c2ccccc2)c1-c1cn(-c2ccc(C(=O)NCCCN3CCOCC3)cc2)cn1 [Example 73, 4-[4-(5-Methyl-3-phenyl-isoxazol-4-yl)-imidazol-1-yl]-N-(3-morpholin-4-yl-propyl)-benzamide] | 14.6 nM |
| Cc1onc(-c2ccccc2)c1-c1cn(-c2ccc(C(=O)NC3CC3)cc2)cn1 [Example 74, N-Cyclopropyl-4-[4-(5-methyl-3-phenyl-isoxazol-4-yl)-imidazol-1-yl]-benzamide] | 5.1 nM |
| Cc1onc(-c2ccccc2)c1-c1cn(-c2ccc(C(=O)NC3CCC3)cc2)cn1 [Example 75, N-Cyclobutyl-4-[4-(5-methyl-3-phenyl-isoxazol-4-yl)-imidazol-1-yl]-benzamide] | 2.7 nM |
| Cc1onc(-c2ccccc2)c1-c1cn(-c2ccc(C(=O)NC3CCCC3)cc2)cn1 [Example 76, N-Cyclopentyl-4-[4-(5-methyl-3-phenyl-isoxazol-4-yl)-imidazol-1-yl]-benzamide] | 10.9 nM |
| Cc1onc(-c2ccccc2)c1-c1cn(-c2ccc(C(=O)NC3CCOCC3)cc2)cn1 [Example 77, 4-[4-(5-Methyl-3-phenyl-isoxazol-4-yl)-imidazol-1-yl]-N-(tetrahydro-pyran-4-yl)-benzamide] | 27.3 nM |
| Cc1onc(-c2ccccc2)c1-c1cn(-c2ccc(C(=O)NCc3cccnc3)cc2)cn1 [Example 78, 4-[4-(5-Methyl-3-phenyl-isoxazol-4-yl)-imidazol-1-yl]-N-pyridin-3-ylmethyl-benzamide] | 12.8 nM |
| Cc1onc(-c2ccccc2)c1-c1cn(-c2ccc(C(=O)NCc3ccncc3)cc2)cn1 [Example 79, 4-[4-(5-Methyl-3-phenyl-isoxazol-4-yl)-imidazol-1-yl]-N-pyridin-4-ylmethyl-benzamide] | 14 nM |
| Cc1onc(-c2ccccc2)c1-c1cn(-c2cccc([N+](=O)[O-])c2)cn1 [Example 82, 5-Methyl-4-[1-(3-nitro-phenyl)-1H-imidazol-4-yl]-3-phenyl-isoxazole] | 19.5 nM |
| Cc1onc(-c2ccccc2)c1-c1cn(-c2cccc(C(=O)NC3CC3)c2)cn1 [Example 84, N-Cyclopropyl-3-[4-(5-methyl-3-phenyl-isoxazol-4-yl)-imidazol-1-yl]-benzamide] | 31.8 nM |
| C#CCNC(=O)c1ccc(-n2cnc(-c3c(-c4cccc(F)c4)noc3C)c2)cc1 [Example 97, 4-{4-[3-(3-Fluoro-phenyl)-5-methyl-isoxazol-4-yl]-imidazol-1-yl}-N-prop-2-ynyl-benzamide] | 10 nM |
| Cc1onc(-c2cccc(F)c2)c1-c1cn(-c2ccc(C(=O)NC3CC3)cc2)cn1 [Example 98, N-Cyclopropyl-4-{4-[3-(3-fluoro-phenyl)-5-methyl-isoxazol-4-yl]-imidazol-1-yl}-benzamide] | 17.7 nM |
| Cc1onc(-c2cccc(F)c2)c1-c1cn(-c2ccc(C(=O)NCCO)cc2)cn1 [Example 101, 4-{4-[3-(3-Fluoro-phenyl)-5-methyl-isoxazol-4-yl]-imidazol-1-yl}-N-(2-hydroxy-ethyl)-benzamide] | 27 nM |
| Cc1onc(-c2cccc(F)c2)c1-c1cn(-c2ccc(C(=O)NCc3ccccn3)cc2)cn1 [Example 106, 4-{4-[3-(3-Fluoro-phenyl)-5-methyl-isoxazol-4-yl]-imidazol-1-yl}-N-pyridin-2-ylmethyl-benzamide] | 32.1 nM |
| Cc1onc(-c2ccc(F)cc2)c1-c1cn(-c2ccc(F)cc2)cn1 [Example 114, 3-(4-Fluoro-phenyl)-4-[1-(4-fluoro-phenyl)-1H-imidazol-4-yl]-5-methyl-isoxazole] | 31 nM |
| Cc1onc(-c2ccc(F)cc2)c1-c1cn(-c2ccc(C#N)cc2)cn1 [Example 116, 4-{4-[3-(4-Fluoro-phenyl)-5-methyl-isoxazol-4-yl]-imidazol-1-yl}-benzonitrile] | 13.2 nM |
| Cc1onc(-c2ccc(F)cc2)c1-c1cn(-c2ccncc2)cn1 [Example 117, 4-{4-[3-(4-Fluoro-phenyl)-5-methyl-isoxazol-4-yl]-imidazol-1-yl}-pyridine] | 13.3 nM |
| Cc1cccc(-n2cnc(-c3c(-c4ccc(F)cc4)noc3C)c2)c1 [Example 118, 3-(4-Fluoro-phenyl)-5-methyl-4-(1-m-tolyl-1H-imidazol-4-yl)-isoxazole] | 29 nM |
| Cc1onc(-c2ccc(F)cc2)c1-c1cn(-c2cccc(F)c2)cn1 [Example 119, 3-(4-Fluoro-phenyl)-4-[1-(3-fluoro-phenyl)-1H-imidazol-4-yl]-5-methyl-isoxazole] | 33.7 nM |

| SMILES | Ki |
| --- | --- |
| Cc1onc(-c2ccc(F)cc2)c1-c1cn(-c2cccc(C#N)c2)cn1 [Example 122, 3-{4-[3-(4-Fluoro-phenyl)-5-methyl-isoxazol-4-yl]-imidazol-1-yl}-benzonitrile] | 25.6 nM |
| Cc1onc(-c2ccc(F)cc2)c1-c1cn(-c2cccnc2)cn1 [Example 124, 3-{4-[3-(4-Fluoro-phenyl)-5-methyl-isoxazol-4-yl]-imidazol-1-yl}-pyridine] | 27.2 nM |
| COC(=O)c1ccc(-n2cnc(-c3c(-c4ccc(F)cc4)noc3C)c2)cc1 [Example 125, 4-{4-[3-(4-Fluoro-phenyl)-5-methyl-isoxazol-4-yl]-imidazol-1-yl}-benzoic acid methyl ester] | 13.6 nM |
| Cc1onc(-c2ccc(F)cc2)c1-c1cn(-c2ccc(C(=O)NC3CCCC3)cc2)cn1 [Example 126, N-Cyclopentyl-4-{4-[3-(4-fluoro-phenyl)-5-methyl-isoxazol-4-yl]-imidazol-1-yl}-benzamide] | 11.9 nM |
| Cc1ccc(-n2cnc(-c3c(-c4ccc(F)cc4)noc3C)c2)cc1[N+](=O)[O-] [Example 131, 3-(4-Fluoro-phenyl)-5-methyl-4-[1-(4-methyl-3-nitro-phenyl)-1H-imidazol-4-yl]-isoxazole] | 21.5 nM |
| CCc1onc(-c2ccc(F)cc2)c1-c1cn(-c2ccc(C(F)(F)F)cc2)cn1 [Example 133, 5-Ethyl-3-(4-fluoro-phenyl)-4-[1-(4-trifluoromethyl-phenyl)-1H-imidazol-4-yl]-isoxazole] | 29.8 nM |
| CCc1onc(-c2ccc(F)cc2)c1-c1cn(-c2ccc([N+](=O)[O-])cc2)cn1 [Example 134, 5-Ethyl-3-(4-fluoro-phenyl)-4-[1-(4-nitro-phenyl)-1H-imidazol-4-yl]-isoxazole] | 12.7 nM |
| CC(=O)c1ccc(-n2cnc(-c3c(-c4ccccc4)noc3C3CC3)c2)cc1 [Example 135, 1-{4-[4-(5-Cyclopropyl-3-phenyl-isoxazol-4-yl)-imidazol-1-yl]-phenyl}-ethanone] | 1.64 nM |
| O=[N+]([O-])c1ccc(-n2cnc(-c3c(-c4ccccc4)noc3C3CC3)c2)cc1 [Example 136, 5-Cyclopropyl-4-[1-(4-nitro-phenyl)-1H-imidazol-4-yl]-3-phenyl-isoxazole] | 1.71 nM |
| N#Cc1ccc(-n2cnc(-c3c(-c4ccccc4)noc3CO)c2)cc1 [Example 139, 4-[4-(5-Hydroxymethyl-3-phenyl-isoxazol-4-yl)-imidazol-1-yl]-benzonitrile] | 28.2 nM |
| CC(=O)c1ccc(-n2cnc(-c3c(-c4ccc(F)cc4)noc3CO)c2)cc1 [Example 140, 1-(4-{4-[3-(4-Fluoro-phenyl)-5-hydroxymethyl-isoxazol-4-yl]-imidazol-1-yl}-phenyl)-ethanone] | 9.8 nM |
| Cc1onc(-c2ccccc2)c1-c1cn(-c2ccccc2)c(COCc2ccccc2)n1 [Example 146, 4-(2-Benzyloxymethyl-1-phenyl-1H-imidazol-4-yl)-5-methyl-3-phenyl-isoxazole] | 17.1 nM |
| Cc1onc(-c2ccccc2)c1-c1cn(-c2ccc([N+](=O)[O-])cc2)c(CO)n1 [Example 147, [4-(5-Methyl-3-phenyl-isoxazol-4-yl)-1-(4-nitro-phenyl)-1H-imidazol-2-yl]-methanol] | 18.1 nM |
| Cc1onc(-c2ccccc2)c1-c1cn(-c2ccc([N+](=O)[O-])cc2)c(CCl)n1 [Example 148, 4-[2-Chloromethyl-1-(4-nitro-phenyl)-1H-imidazol-4-yl]-5-methyl-3-phenyl-isoxazole] | 23.3 nM |
| Cc1onc(-c2ccccc2)c1-c1cn(-c2ccc([N+](=O)[O-])cc2)c(C=O)n1 [Example 149, 4-(5-Methyl-3-phenyl-isoxazol-4-yl)-1-(4-nitro-phenyl)-1H-imidazole-2-carbaldehyde] | 29.9 nM |
| Cc1ccc(COCc2nc(-c3c(-c4ccccc4)noc3C)cn2-c2ccc([N+](=O)[O-])cc2)cc1 [Example 153, 5-Methyl-4-[2-(4-methyl-benzyloxymethyl)-1-(4-nitro-phenyl)-1H-imidazol-4-yl]-3-phenyl-isoxazole] | 17.3 nM |
| Cc1onc(-c2ccccc2)c1-c1cn(-c2ccc([N+](=O)[O-])cc2)c(COCc2ccc(F)cc2)n1 [Example 154, 4-[2-(4-Fluoro-benzyloxymethyl)-1-(4-nitro-phenyl)-1H-imidazol-4-yl]-5-methyl-3-phenyl-isoxazole] | 13.5 nM |
| Cc1onc(-c2ccccc2)c1-c1cn(-c2ccc([N+](=O)[O-])cc2)c(COCc2cccc(F)c2)n1 [Example 158, 4-[2-(3-Fluoro-benzyloxymethyl)-1-(4-nitro-phenyl)-1H-imidazol-4-yl]-5-methyl-3-phenyl-isoxazole] | 17 nM |
